Test results reported in patent US5422341A, “Motilin-like polypeptides with gastrointestinal motor stimulating activity” (Ohmeda Pharmaceutical Products Division Inc., priority 1993, dated 1995).
Counter-ions that a name gives are not always drawn. Square brackets hold non-standard residues; d marks the D form. Peptide text beside a SMILES is read from it. * marks the point of attachment. X3 = C#CC[N+](C)(C)[C@@H](Cc1ccccc1)C(=O)*; X5 = C=CC[N+](C)(C)[C@@H](Cc1ccccc1)C(=O)*; X1 = C[N+](C)(C)[C@@H](Cc1ccccc1)C(=O)*; NMe2Phe = CN(C)[C@@H](Cc1ccccc1)C(=O)*; X2 = C#CCN(C)[C@@H](Cc1ccccc1)C(=O)*; NMeF = CN[C@@H](Cc1ccccc1)C(=O)O; dCha = N[C@H](CC1CCCCC1)C(=O)O

Legend:
[1] = molecular target: segments of rabbit duodenum (Oryctolagus cuniculus, UniProt G1T803); assay: Rabbit duodenal smooth muscle strip tissue bath assay; type: cell-based; conditions: negative logarithm of the dose giving 50% of the maximal response to motilin; isotonic contraction of rabbit duodenum segments
Procedure: The contractile response of segments of rabbit duodenum was determined isotonically in the tissue bath according to the procedure of Depoortere et at., J. Gastrointestinal Motility, 1, 150-159 (1989). The experimental protocol consisted of an equilibration period of 1 hour; a challenge with 10^-4 M acetylcholine followed by a wash-out period; a cumulative dose-response curve of a compound with, at the end, the addition of 10^-7 M motilin; and finally 10^-4 M acetylcholine. If the final response to 10^-4 M acetylcholine differed by more than 5% from the initial response, the results were discarded. The compounds were tested in the concentration range 10^-11 to 10^-4 M. The point corresponding to 50% of the maximal response to motilin (Emax) was determined by fitting the equation E=Emax (1+EC50 /[L]) through the data points. […] The dose giving 50% of the response is expressed using its negative logarithm (pEC50).

[2] = molecular target: T1, motilin receptor (Oryctolagus cuniculus, UniProt G1T803); assay: Determination of motilin receptor binding affinity (displacement of [125I-Tyr7, Nle13]motilin(porcine)); design: species or system rabbit; conditions: negative logarithm of the concentration displacing 50% of [125I-Tyr7, Nle13]motilin(porcine) from rabbit antral smooth muscle membranes; read-out: pIC50 (converted)
T1 construct: from tissue; host or cells: rabbit antral smooth muscle membranes
Procedure: The motilin receptor binding affinity of the peptides of this invention was determined by using the general procedure of Bormans, Peelers and Vantrappen, Regul. […] Fitting was performed using the iterative least-squares procedure of the SAS-software package (SAS Institute, Inc., Cary, N.C., USA).

T1 sequence (G1T803 1-400): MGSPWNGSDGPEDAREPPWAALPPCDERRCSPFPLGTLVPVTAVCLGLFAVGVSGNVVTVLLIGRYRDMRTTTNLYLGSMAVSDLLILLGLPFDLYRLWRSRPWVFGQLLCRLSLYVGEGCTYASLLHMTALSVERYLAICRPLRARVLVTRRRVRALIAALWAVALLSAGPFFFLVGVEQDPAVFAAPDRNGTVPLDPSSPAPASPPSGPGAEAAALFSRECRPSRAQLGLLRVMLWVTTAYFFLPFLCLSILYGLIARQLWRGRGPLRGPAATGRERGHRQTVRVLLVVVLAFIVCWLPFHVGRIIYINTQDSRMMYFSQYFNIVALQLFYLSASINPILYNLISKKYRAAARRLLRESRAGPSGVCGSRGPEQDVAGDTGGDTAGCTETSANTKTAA
segments of rabbit duodenum, sequence (G1T803 1-400): as above

SMILES	pEC50 [1]	IC50 [2] [nM]
CC[C@H](C)[C@H](NC(=O)[C@@H]1CCCN1C(=O)[C@@H](NC(=O)[C@@H](N)Cc1ccccc1)C(C)C)C(=O)N[C@@H](Cc1ccccc1)C(=O)N[C@H](C(=O)N[C@@H](Cc1ccc(O)cc1)C(=O)NCC(=O)N[C@@H](CCC(=O)O)C(=O)N[C@@H](CC(C)C)C(=O)N[C@@H](CCC(N)=O)C(=O)N[C@H](C)C(=O)N[C@@H](CC(C)C)C(=O)N[C@@H](CCC(N)=O)C(=O)O)[C@@H](C)O [[D-Ala^12, Leu^13]pMOT(1-14)] (H-FVPIFTYGELQ[dA]LQ-OH)	7.29	8.91
CC[C@H](C)[C@H](NC(=O)[C@@H]1CCCN1C(=O)[C@@H](NC(=O)[C@@H](N)Cc1ccccc1)C(C)C)C(=O)N[C@@H](Cc1ccccc1)C(=O)N[C@H](C(=O)N[C@@H](Cc1ccc(O)cc1)C(=O)N[C@H](C)C(=O)N[C@@H](CCC(=O)O)C(=O)N[C@@H](CC(C)C)C(=O)N[C@@H](CCC(N)=O)C(=O)N[C@H](CCCNC(=N)N)C(=O)N[C@@H](CC(C)C)C(=O)N[C@@H](CCC(N)=O)C(=O)O)[C@@H](C)O [[D-Ala^8, D-Arg^12, Leu^13]pMOT(1-14), H-Phe-Val-Pro-Ile-Phe-Thr-Tyr-D-Ala-Glu-Leu-Gln-D-Arg-Leu-Gln-OH] (H-FVPIFTY[dA]ELQ[dR]LQ-OH)	7.09	6.03
CC[C@H](C)[C@H](NC(=O)[C@@H]1CCCN1C(=O)[C@@H](NC(=O)[C@@H](N)Cc1ccccc1)C(C)C)C(=O)N[C@@H](Cc1ccccc1)C(=O)N[C@H](C(=O)N[C@@H](Cc1ccc(O)cc1)C(=O)NCC(=O)N[C@@H](CCC(=O)O)C(=O)N[C@@H](CC(C)C)C(=O)N[C@@H](CCC(N)=O)C(=O)N[C@H](CCCNC(=N)N)C(=O)N[C@@H](CC(C)C)C(=O)N[C@@H](CCCCN)C(N)=O)[C@@H](C)O (H-FVPIFTYGELQ[dR]LK-NH2)	7.13	1.29
CC[C@H](C)[C@H](NC(=O)[C@H](C)NC(=O)[C@@H](NC(=O)[C@@H](N)Cc1ccccc1)C(C)C)C(=O)N[C@@H](Cc1ccccc1)C(=O)N[C@H](C(=O)N[C@@H](Cc1ccc(O)cc1)C(=O)NCC(=O)N[C@@H](CCC(=O)O)C(=O)N[C@@H](CC(C)C)C(=O)N[C@@H](CCC(N)=O)C(=O)N[C@H](CCCNC(=N)N)C(=O)N[C@@H](CC(C)C)C(=O)N[C@@H](CCC(N)=O)C(N)=O)[C@@H](C)O (H-FVAIFTYGELQ[dR]LQ-NH2)	7.76	1.95
CC[C@H](C)[C@H](NC(=O)[C@H](C)NC(=O)[C@@H](NC(=O)[C@H](N)CC1CCCCC1)C(C)C)C(=O)N[C@@H](Cc1ccccc1)C(=O)N[C@H](C(=O)N[C@@H](Cc1ccc(O)cc1)C(=O)NCC(=O)N[C@@H](CCC(=O)O)C(=O)N[C@@H](CC(C)C)C(=O)N[C@@H](C)C(=O)N[C@H](CCCNC(=N)N)C(=O)N[C@@H](CC(C)C)C(=O)N[C@H](CCCCN)C(N)=O)[C@@H](C)O (H-[dCha]VAIFTYGELA[dR]L[dK]-NH2)	7.25	0.933
CC[C@H](C)[C@H](NC(=O)[C@H](C)NC(=O)[C@@H](NC(=O)[C@H](Cc1ccccc1)N(C)C)C(C)C)C(=O)N[C@@H](Cc1ccccc1)C(=O)N[C@H](C(=O)N[C@@H](Cc1ccc(O)cc1)C(=O)NCC(=O)N[C@@H](CCC(=O)O)C(=O)N[C@@H](CC(C)C)C(=O)N[C@@H](C)C(=O)N[C@H](CCCNC(=N)N)C(=O)N[C@@H](CC(C)C)C(=O)N[C@H](CCCCN)C(N)=O)[C@@H](C)O (NMe2Phe-VAIFTYGELA[dR]L[dK]-NH2)	7.73	4.07
CC[C@H](C)[C@H](NC(=O)[C@@H]1CCCN1C(=O)[C@@H](NC(=O)[C@@H](N)Cc1ccccc1)C(C)C)C(=O)N[C@@H](Cc1ccccc1)C(=O)N[C@H](C(=O)N[C@@H](Cc1ccc(O)cc1)C(=O)NCC(=O)N[C@@H](CCC(=O)O)C(=O)N[C@@H](CC(C)C)C(=O)N[C@@H](CCC(N)=O)C(=O)N[C@H](CCCNC(=N)N)C(=O)N[C@@H](CC(C)C)C(=O)N[C@@H](CCC(N)=O)C(=O)N[C@@H](CCC(=O)O)C(=O)N[C@@H](CCCCN)C(=O)N[C@@H](CCC(=O)O)C(=O)N[C@@H](CCCNC(=N)N)C(=O)N[C@@H](CC(N)=O)C(=O)N[C@@H](CCCCN)C(=O)NCC(=O)N[C@@H](CCC(N)=O)C(=O)O)[C@@H](C)O [[D-Arg^12, Leu^13]pMOT(1-22)]	7.67	1.66
CC[C@H](C)[C@H](NC(=O)[C@H](C)NC(=O)[C@@H](NC(=O)[C@H](Cc1ccccc1)[N+](C)(C)C)C(C)C)C(=O)N[C@@H](Cc1ccccc1)C(=O)N[C@H](C(=O)N[C@@H](Cc1ccc(O)cc1)C(=O)NCC(=O)N[C@@H](CCC(=O)O)C(=O)N[C@@H](CC(C)C)C(=O)N[C@@H](CCC(N)=O)C(=O)N[C@@H](CCCNC(=N)N)C(=O)N[C@@H](CC(C)C)C(=O)N[C@@H](CCCCN)C(N)=O)[C@@H](C)O (X1-VAIFTYGELQRLK-NH2)	7.58	1.51

Next, values leading:

pEC50 [1]	IC50 [2] [nM]	SMILES
7.69	3.55	CC[C@H](C)[C@H](NC(=O)[C@@H]1CCCN1C(=O)[C@@H](NC(=O)[C@H](Cc1ccccc1)[N+](C)(C)C)C(C)C)C(=O)N[C@@H](Cc1ccccc1)C(=O)N[C@H](C(=O)N[C@@H](Cc1ccc(O)cc1)C(=O)NCC(=O)N[C@@H](CCC(=O)O)C(=O)N[C@@H](CC(C)C)C(=O)N[C@@H](CCC(N)=O)C(=O)N[C@@H](CCCNC(=N)N)C(=O)N[C@@H](CC(C)C)C(=O)N[C@@H](CCC(N)=O)C(=O)O)[C@@H](C)O [[Me3 N^+ Phe^1, Leu^13]pMOT(1-14), [1-N,N,N-Trimethylphenylalanine, 13-leucine]motilin-(1-14)-peptide (Porcine) Bis-trifluoroacetate Salt] (X1-VPIFTYGELQRLQ-OH)
7.65	2.14	C#CC[N+](C)(C)[C@@H](Cc1ccccc1)C(=O)N[C@H](C(=O)N1CCC[C@H]1C(=O)N[C@H](C(=O)N[C@@H](Cc1ccccc1)C(=O)N[C@H](C(=O)N[C@@H](Cc1ccc(O)cc1)C(=O)NCC(=O)N[C@@H](CCC(=O)O)C(=O)N[C@@H](CC(C)C)C(=O)N[C@@H](CCC(N)=O)C(=O)N[C@@H](CCCNC(=N)N)C(=O)N[C@@H](CC(C)C)C(=O)N[C@@H](CCC(N)=O)C(N)=O)[C@@H](C)O)[C@@H](C)CC)C(C)C (X3-VPIFTYGELQRLQ-NH2)
7.95	1.02	CC[C@H](C)[C@H](NC(=O)[C@@H]1CCCN1C(=O)[C@@H](NC(=O)[C@H](Cc1ccccc1)NC)C(C)C)C(=O)N[C@@H](Cc1ccccc1)C(=O)N[C@H](C(=O)N[C@@H](Cc1ccc(O)cc1)C(=O)NCC(=O)N[C@@H](CCC(=O)O)C(=O)N[C@@H](CC(C)C)C(=O)N[C@@H](CCC(N)=O)C(=O)N[C@H](CCCNC(=N)N)C(=O)N[C@@H](CC(C)C)C(=O)N[C@@H](CCC(N)=O)C(N)=O)[C@@H](C)O (H-[NMeF]VPIFTYGELQ[dR]LQ-NH2)
7.57	2	C#CCN(C)[C@@H](Cc1ccccc1)C(=O)N[C@H](C(=O)N1CCC[C@H]1C(=O)N[C@H](C(=O)N[C@@H](Cc1ccccc1)C(=O)N[C@H](C(=O)N[C@@H](Cc1ccc(O)cc1)C(=O)NCC(=O)N[C@@H](CCC(=O)O)C(=O)N[C@@H](CC(C)C)C(=O)N[C@@H](CCC(N)=O)C(=O)N[C@@H](CCCNC(=N)N)C(=O)N[C@@H](CC(C)C)C(=O)N[C@@H](CCC(N)=O)C(N)=O)[C@@H](C)O)[C@@H](C)CC)C(C)C (X2-VPIFTYGELQRLQ-NH2)
7.48	2.69	CC[C@H](C)[C@H](NC(=O)[C@@H]1CCCN1C(=O)[C@@H](NC(=O)[C@H](Cc1ccccc1)[N+](C)(C)C)C(C)C)C(=O)N[C@@H](Cc1ccccc1)C(=O)N[C@H](C(=O)N[C@@H](Cc1ccc(O)cc1)C(=O)NCC(=O)N[C@@H](CCC(=O)O)C(=O)N[C@@H](CC(C)C)C(=O)N[C@@H](CCC(N)=O)C(=O)N[C@@H](CCCNC(=N)N)C(=O)N[C@@H](CC(C)C)C(=O)N[C@@H](CCC(N)=O)C(N)=O)[C@@H](C)O (X1-VPIFTYGELQRLQ-NH2)
7.50	2.45	CC[C@H](C)[C@H](NC(=O)[C@@H]1CCCN1C(=O)[C@@H](NC(=O)[C@@H](N)Cc1ccccc1)C(C)C)C(=O)N[C@@H](Cc1ccccc1)C(=O)N[C@H](C(=O)N[C@@H](Cc1ccc(O)cc1)C(=O)NCC(=O)N[C@@H](CCC(=O)O)C(=O)N[C@@H](CC(C)C)C(=O)N[C@@H](CCC(N)=O)C(=O)N[C@H](CCCNC(=N)N)C(=O)N[C@@H](CC(C)C)C(=O)N[C@@H](CCC(N)=O)C(N)=O)[C@@H](C)O [[D-Arg^13, Leu^13]pMOT(1-14) amide] (H-FVPIFTYGELQ[dR]LQ-NH2)
7.47	1.74	C=CC[N+](C)(C)[C@@H](Cc1ccccc1)C(=O)N[C@H](C(=O)N1CCC[C@H]1C(=O)N[C@H](C(=O)N[C@@H](Cc1ccccc1)C(=O)N[C@H](C(=O)N[C@@H](Cc1ccc(O)cc1)C(=O)NCC(=O)N[C@@H](CCC(=O)O)C(=O)N[C@@H](CC(C)C)C(=O)N[C@@H](CCC(N)=O)C(=O)N[C@@H](CCCNC(=N)N)C(=O)N[C@@H](CC(C)C)C(=O)N[C@@H](CCC(N)=O)C(N)=O)[C@@H](C)O)[C@@H](C)CC)C(C)C (X5-VPIFTYGELQRLQ-NH2)
